Patent publication US20120316161A1, “NOVEL ANTIVIRAL COMPOUNDS” (KATHOLIEKE UNIVERSITEIT LEUVEN, priority 2009, published 2012)
Like-named read-outs stand apart in the source and are kept apart here.

What was measured:
HIV = assay: microbe, parasite or virus in culture; assay type: cell-based; conditions: Human immunodeficiency virus 1, MT4
Description: (§1) A rapid and automated assay procedure was used for the in vitro evaluation of anti-HIV agents. An HTLV-1 transformed T4-cell line MT-4, which was previously shown to be highly susceptible to and permissive for HIV infection, served as the target cell line. Inhibition of the HIV-induced cytopathogenic effect was used as the end point. The viability of both HIV-and mock-infected cells was assessed spectrophotometrically via in situ reduction of 3-(4,5-dimethylthiazol-2-yl)-2,5-diphenyltetrazolium bromide (MTT). The 50% cytotoxic concentration (CC50 in μg/ml) was defined as the concentration of compound that reduced the absorbance of the mock-infected control sample by 50%. The percent protection achieved by the compound in HIV-infected cells was calculated by the following formula: […]
whereby (ODT)HIV is the optical density measured with a given concentration of the test compound in HIV-infected cells; (ODC)HIV is the optical density measured for the control untreated HIV-infected cells; (ODC)MOCK is the optical density measured for the control untreated mock-infected cells; all optical density values were determined at 540 nm. The dose achieving 50% protection according to the above formula was defined as the 50% inhibitory concentration (EC50 in μg/ml or μM). The ratio of CC50 to EC50 was defined as the selectivity index (SI). […] Examples of inhibition of cell proliferation by particular compounds of the invention can be found by looking at the respective CC50 values in the MT-4 cell line. Cells: MT-4 cells (Miyoshi et al., 1982) were grown and maintained in RPMI 1640medium supplemented with 10% heat-inactivated fetal calf serum, 2 mM 1-glutamine, 0.1% sodium bicarbonate, and 20æg of gentamicin per ml.
Viruses: The HIV-1 (NL4.3) strain (Adachi et al., 1986) is a molecular clone obtained from the National Institutes of Health (Bethesda, Md.). The HIV-2 (ROD) (Barr, -Sinoussi et al., 1983) stock was obtained from culture supernatant of HIV-2 infected cell lines.

[1] = Cytotoxicity in mock-infected MT-4 cells (MTT); assay type: cell-based; conditions: human, mock-infected MT-4 cells
Description: as §1, with “The 50% cytotoxic concentration (CC50 in μg/ml) was defined as the concentration of compound that reduced the absorbance of the mock-infected control sample by 50%.” left out
whereby (ODT)HIV is the optical density measured with a given concentration of the test compound in HIV-infected cells; (ODC)HIV is the optical density measured for the control untreated HIV-infected cells; (ODC)MOCK is the optical density measured for the control untreated mock-infected cells; all optical density values were determined at 540 nm. […] The ratio of CC50 to EC50 was defined as the selectivity index (SI).

[2] = biological target: T1, LEDGF-integrase interaction (His6-tagged HIV-1 integrase, flag-LEDGF/p75) (Human immunodeficiency virus type 1 group M subtype B, UniProt P04585); assay: AlphaScreen assay of LEDGF-integrase interaction inhibition; assay type: binding; conditions: compound at 100 μM
T1 construct: His6-tagged HIV-1 integrase; made in house
Description: The AlphaScreen assay was performed according to the manufacturer's protocol (Perkin Elmer, Benelux). Reactions were performed in 25 μl final volume in 384-well Optiwell™ microtiter plates (Perkin Elmer). The reaction buffer contained 25 mM Tris-HCl (pH 7.4), 150 mM NaCl, 1 mM MgCl2, 0.01% (v/v) Tween-20 and 0.1% (w/v) bovine serum albumin. His6-tagged integrase (300 nM final concentration) was incubated with the compounds for 30 min at 4° C. The compounds were added at varying concentrations spanning a wide range from 0.1 up to 100 μM. Afterwards 100 nM flag-LEDGF/p75 was added and incubation was prolonged for an additional hour at 4° C. Subsequently 5 μl of Ni-chelate—coated acceptor beads and 5 μl anti-flag donor beads were added to a final concentration of 20 μg/ml of both beads. Proteins and beads were incubated for 1 h at 30° C. in order to allow association to occur. Exposure of the reaction to direct light was omitted as much as possible and the emission of light from the acceptor beads was measured in the EnVision plate reader (Perkin Elmer, Benelux) and analyzed using the EnVision manager software. IN/DNA binding was analyzed in a similar setting using His6-tagged integrase (1 μM final concentration) and an oligodeoxynucleotide mimicking the IN ELISA oligonucleotide substrate (30 nM final concentration). Counterscreens with JPO2 or PogZ, respectively, were essentially performed as described previously. Expression and purification of recombinant proteins: His6-tagged HIV-1 integrase, 3xflag-tagged LEDGF/p75, MBP-JPO2 and MBP-PogZ were purified for AlphaScreen applications as described previously.

[3] = 50% protection of HIV-infected MT-4 cells, read-out: EC50

SMILES	EC50 (HIV; [3])	CC50 [1]	Alpha screen % (100 μM) [2]	EC50 (HIV)
CCCC(C(=O)O)c1c(C)nc2ccnn2c1-c1ccc(C)cc1 (centres unmarked) [CPD-57, 2-(5-methyl-7-p-tolylpyrazolo[1,5-a]pyrimidin-6-yl)pentanoic acid]	192 µM	> 250 µM	84%	–
CCCC(C(=O)O)c1c(C)nc2cc(C(C)(C)C)nn2c1-c1ccccc1 (centres unmarked) [CPD-58, 2-(2-tert-butyl-5-methyl-7-phenylpyrazolo[1,5-a]pyrimidin-6-yl)pentanoic acid]	27.3 µM	121 µM	77%	–
CCCC(C(=O)O)c1c(C)nc2cc(C(C)(C)C)nn2c1-c1ccc(C)cc1 (centres unmarked) [CPD-59, 2-(2-tert-butyl-5-methyl-7-p-tolylpyrazolo[1,5-a]pyrimidin-6-yl)pentanoic acid]	14.3 µM	> 250 µM	92%	–
CCCC(C(=O)O)c1c(C)nc2c(Br)c(C(C)(C)C)nn2c1-c1ccc(C)cc1 (centres unmarked) [CPD-60, 2-(3-bromo-2-tert-butyl-5-methyl-7-p-tolylpyrazolo[1,5-a]pyrimidin-6-yl)pentanoic acid]	2.39 µM	56.3 µM	92%	–
CCCC(C(=O)O)c1c(C)nc2cc(-c3ccccc3)nn2c1-c1ccc(C)cc1 (centres unmarked) [CPD-61, 2-(5-methyl-2-phenyl-7-p-tolylpyrazolo[1,5-a]pyrimidin-6-yl)pentanoic acid]	30.2 µM	104 µM	94%	–
CCCC(C(=O)O)c1c(C)nc2cc(C(C)(C)C)nn2c1-c1ccc2cc[nH]c2c1 (centres unmarked) [CPD-65, 2-(2-tert-butyl-7-(1H-indol-6-yl)-5-methylpyrazolo[1,5-a]pyrimidin-6-yl)pentanoic acid]	–	46.5 µM	30%	5.69 µM
CCCC(C(=O)O)c1c(C)nc2cc(C(C)(C)C)nn2c1-c1ccc2occc2c1 (centres unmarked) [CPD-66, 2-(7-(benzofuran-5-yl)-2-tert-butyl-5-methylpyrazolo[1,5-a]pyrimidin-6-yl)pentanoic acid]	10.5 µM	99 µM	92%	–
CCCC(C(=O)O)c1c(C)nc2cc(C(C)(C)C)nn2c1-c1ccc2sccc2c1 (centres unmarked) [CPD-67, 2-(7-(benzo[b]thiophen-5-yl)-2-tert-butyl-5-methylpyrazolo[1,5-a]pyrimidin-6-yl)pentanoic acid]	2.94 µM	70 µM	93%	–
CCCC(C(=O)O)c1c(C)nc2cc(C(C)(C)C)nn2c1-c1ccc2c(c1)CCO2 (centres unmarked) [CPD-68, 2-(2-tert-butyl-7-(2,3-dihydrobenzofuran-5-yl)-5-methylpyrazolo[1,5-a]pyrimidin-6-yl)pentanoic acid]	6.42 µM	101 µM	93%	–
CCCC(C(=O)O)c1c(C)nc2cc(C(C)(C)C)nn2c1-c1ccc(Cl)cc1 (centres unmarked) [CPD-69, 2-(2-tert-butyl-7-(4-chlorophenyl)-5-methylpyrazolo[1,5-a]pyrimidin-6-yl)pentanoic acid]	–	40.3 µM	93%	1.61 µM
CCCC(C(=O)O)c1c(C)nc2cc(C(C)(C)C)nn2c1-c1ccc(C)c(C)c1 (centres unmarked) [CPD-70, 2-(2-tert-butyl-7-(3,4-dimethylphenyl)-5-methylpyrazolo[1,5-a]pyrimidin-6-yl)pentanoic acid]	72.1 µM	> 125 µM	93%	–
CCCC(C(=O)O)c1c(C)nc2cc(C(C)(C)C)nn2c1-c1ccc(CC)cc1 (centres unmarked) [CPD-71, 2-(2-tert-butyl-7-(4-ethylphenyl)-5-methylpyrazolo[1,5-a]pyrimidin-6-yl)pentanoic acid]	2.8 µM	73 µM	74%	–
CCCC(C(=O)O)c1c(C)nc2cc(C(C)(C)C)nn2c1-c1ccc2c(c1)OCCCO2 (centres unmarked) [CPD-72, 2-(2-tert-butyl-7-(3,4-dihydro-2H-benzo[b][1,4]dioxepin-7-yl)-5-methylpyrazolo[1,5-a]pyrimidin-6-yl)pentanoic acid]	22.6 µM	> 125 µM	93%	–
CCCc1cc2nc(C)c(C(CCC)C(=O)O)c(-c3ccc(C)cc3)n2n1 (centres unmarked) [CPD-77, 2-(5-methyl-2-propyl-7-p-tolylpyrazolo[1,5-a]pyrimidin-6-yl)pentanoic acid]	28.1 µM	203 µM	83%	–
CCCC(C(=O)O)c1c(C)nc2cc(-c3ccco3)nn2c1-c1ccc(C)cc1 (centres unmarked) [CPD-78, 2-(2-(furan-2-yl)-5-methyl-7-p-tolylpyrazolo[1,5-a]pyrimidin-6-yl)pentanoic acid]	21.2 µM	127 µM	83%	–
CCCC(C(=O)O)c1c(C)nc2cc(C(C)(C)C)nn2c1-c1ccc(Cl)cc1F (centres unmarked) [CPD-79, 2-(2-tert-butyl-7-(4-chloro-2-fluorophenyl)-5-methylpyrazolo[1,5-a]pyrimidin-6-yl)pentanoic acid]	1.89 µM	76 µM	75%	–
CCCC(C(=O)O)c1c(C)nc2cc(C(C)(C)C)nn2c1-c1ccc(C)cc1F (centres unmarked) [CPD-80, 2-(2-tert-butyl-7-(2-fluoro-4-methylphenyl)-5-methylpyrazolo[1,5-a]pyrimidin-6-yl)pentanoic acid]	4.08 µM	192 µM	75%	–
Cc1ccc(-c2c(C(CCCC(F)(F)F)C(=O)O)c(C)nc3cc(C(C)(C)C)nn23)cc1 (centres unmarked) [CPD-81, 2-(2-tert-butyl-7-p-tolyl-5-methylpyrazolo[1,5-a]pyrimidin-6-yl)-6,6,6-trifluorohexanoic acid]	16.4 µM	56 µM	65%	–
CCCC(C(=O)O)c1c(C)nc2cc(C(C)(C)C)nn2c1-c1ccc2c(c1)CCCO2 (centres unmarked) [CPD-85]	2.54 µM	125 µM	76%	–
CCC(C)C(C(=O)O)c1c(C)nc2cc(C(C)(C)C)nn2c1-c1ccc(C)cc1 (centres unmarked) [CPD-86, 2-(2-tert-butyl-7-p-tolyl-5-methylpyrazolo[1,5-a]pyrimidin-6-yl)-3-methylpentanoic acid]	–	77 µM	–	–
CCCC(C(=O)O)c1c(C)nc2c(Cl)c(C(C)(C)C)nn2c1-c1ccc(C)cc1 (centres unmarked) [CPD-87, 2-(2-tert-butyl-3-chloro-7-p-tolyl-5-methylpyrazolo[1,5-a]pyrimidin-6-yl)pentanoic acid]	2.33 µM	38.3 µM	67%	–
CCCC(C(=O)O)c1c(C)nc2c(nc(C)n2C)c1-c1ccc(C)cc1 (centres unmarked) [CPD-105, 2-(2,3,5-Trimethyl-7-p-tolyl-3H-imidazo[4,5-b]pyridin-6-yl)pentanoic acid]	23.2 µM	235 µM	–	–
CCCC(C(=O)O)c1c(C)nc2nc(C(C)C)nn2c1-c1ccc(C)cc1 (centres unmarked) [CPD-121, 2-(2-isopropyl-5-methyl-7-p-tolyl-[1,2,4]-triazolo[1,5-a]pyrimidin-6-yl)pentanoic acid]	124 µM	> 250 µM	–	–
